Results from patent US20260092071A1, “COMPOUNDS AND COMPOSITIONS AS SMARCA2/4 DEGRADERS AND USES THEREOF” (REGENTS OF THE UNIVERSITY OF MICHIGAN, priority 2022, published 2026).

Assays:
[1] = target: SMARCA2 (Homo sapiens, UniProt P51531); assay: HiBit assay in engineered HT1080 CRISPR knock-in cell, 6 hrs (B series), SMARCA2; type: cell-based; conditions: 6 hrs incubation; for DC50: HT1080 CRISPR knock-in cells, read-out: SMARC A2 HT1080 HiBit DC50; for Dmax: HT-1080, HT1080 CRISPR knock-in cells, read-out: SMARC A2 HT1080 HiBit Dmax (%)
Chain of SMARCA2 (P51531 whole entry): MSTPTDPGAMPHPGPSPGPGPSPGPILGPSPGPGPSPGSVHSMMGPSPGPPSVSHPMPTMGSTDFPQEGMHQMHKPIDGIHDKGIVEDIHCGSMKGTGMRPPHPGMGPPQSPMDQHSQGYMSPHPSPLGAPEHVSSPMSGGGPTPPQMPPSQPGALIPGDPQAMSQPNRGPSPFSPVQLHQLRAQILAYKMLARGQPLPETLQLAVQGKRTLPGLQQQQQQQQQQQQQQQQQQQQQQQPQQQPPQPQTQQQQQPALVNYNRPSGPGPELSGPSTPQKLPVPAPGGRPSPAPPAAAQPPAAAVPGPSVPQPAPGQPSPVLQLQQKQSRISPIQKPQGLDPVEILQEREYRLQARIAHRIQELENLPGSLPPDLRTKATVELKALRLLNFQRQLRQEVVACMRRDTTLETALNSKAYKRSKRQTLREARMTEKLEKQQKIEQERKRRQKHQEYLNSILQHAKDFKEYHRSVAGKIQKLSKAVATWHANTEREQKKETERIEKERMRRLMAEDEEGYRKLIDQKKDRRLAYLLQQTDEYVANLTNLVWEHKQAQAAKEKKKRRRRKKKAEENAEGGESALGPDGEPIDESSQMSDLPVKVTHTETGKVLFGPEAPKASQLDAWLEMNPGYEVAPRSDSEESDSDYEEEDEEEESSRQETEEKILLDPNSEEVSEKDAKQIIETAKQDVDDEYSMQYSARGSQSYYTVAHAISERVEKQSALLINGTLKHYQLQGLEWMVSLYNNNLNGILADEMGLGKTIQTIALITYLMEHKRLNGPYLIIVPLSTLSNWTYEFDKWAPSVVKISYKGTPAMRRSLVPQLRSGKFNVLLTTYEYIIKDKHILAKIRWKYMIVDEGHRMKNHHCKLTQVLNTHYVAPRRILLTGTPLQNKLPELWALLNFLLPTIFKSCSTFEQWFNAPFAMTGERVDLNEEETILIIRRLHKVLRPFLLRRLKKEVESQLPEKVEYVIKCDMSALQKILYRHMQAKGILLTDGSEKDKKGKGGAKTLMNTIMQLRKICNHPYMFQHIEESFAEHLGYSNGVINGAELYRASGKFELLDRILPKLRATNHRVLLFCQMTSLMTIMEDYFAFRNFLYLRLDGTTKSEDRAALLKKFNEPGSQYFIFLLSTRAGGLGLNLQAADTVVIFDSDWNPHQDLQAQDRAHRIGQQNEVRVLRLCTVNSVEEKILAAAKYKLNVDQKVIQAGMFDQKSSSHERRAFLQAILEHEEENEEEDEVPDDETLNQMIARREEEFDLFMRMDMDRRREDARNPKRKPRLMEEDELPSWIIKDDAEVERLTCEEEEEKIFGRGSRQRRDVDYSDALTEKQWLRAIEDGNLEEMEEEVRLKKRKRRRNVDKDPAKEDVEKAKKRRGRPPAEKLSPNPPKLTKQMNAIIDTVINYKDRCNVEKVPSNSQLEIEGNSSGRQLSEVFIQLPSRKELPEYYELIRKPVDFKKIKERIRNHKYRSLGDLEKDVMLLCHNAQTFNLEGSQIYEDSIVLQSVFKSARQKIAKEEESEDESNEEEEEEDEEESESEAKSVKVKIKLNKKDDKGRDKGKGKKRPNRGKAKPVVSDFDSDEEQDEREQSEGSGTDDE
Description: (§1) The HiBit assay was performed using engineered HT1080 CRISPR knock-in cell utilizing the Nano-Glo HiBiT Lytic Detection System from Promega, Cat #N3040. Compounds were transferred, 25 nL DMSO or test compounds (final DMSO @ 0.1%) to intermediate plates (Corning3570) using ECHO550. Cells were seeded onto compounds at 2000 cells/25 μL/well and incubated for 6 hrs in a tissue culture incubator at 37° C. and 5% CO2. The LgBiT Protein was diluted at 1:100 and the Nano-Glo® HiBIT Lytic Substrate 1:50 into an appropriate volume of room temperature using the Nano-Glo® HiBiT Lytic Buffer. At the end of compound incubation time, 15 ul of the detection reagent was added to each well (without LgBiT for negative control wells) using the Thermo Scientific multidrop combi. The plate was shaken for 10 mins at RT using Combi. After briefly centrifugation (2000 rpm 1 mins), plate was read on Envision (Ultrasensitive luminescence model).

[2] = target: SMARCA4 (Homo sapiens, UniProt P51532); assay: HiBit assay in engineered HT1080 CRISPR knock-in cell, 6 hrs (B series), SMARCA4; type: cell-based; conditions: 6 hrs incubation; for DC50: HT1080 CRISPR knock-in cells, read-out: SMARC A4 HT1080 HiBit DC50; for Dmax: HT-1080, HT1080 CRISPR knock-in cells, read-out: SMARC A4 HT1080 HiBit Dmax(%)
Chain of SMARCA4 (P51532 whole entry): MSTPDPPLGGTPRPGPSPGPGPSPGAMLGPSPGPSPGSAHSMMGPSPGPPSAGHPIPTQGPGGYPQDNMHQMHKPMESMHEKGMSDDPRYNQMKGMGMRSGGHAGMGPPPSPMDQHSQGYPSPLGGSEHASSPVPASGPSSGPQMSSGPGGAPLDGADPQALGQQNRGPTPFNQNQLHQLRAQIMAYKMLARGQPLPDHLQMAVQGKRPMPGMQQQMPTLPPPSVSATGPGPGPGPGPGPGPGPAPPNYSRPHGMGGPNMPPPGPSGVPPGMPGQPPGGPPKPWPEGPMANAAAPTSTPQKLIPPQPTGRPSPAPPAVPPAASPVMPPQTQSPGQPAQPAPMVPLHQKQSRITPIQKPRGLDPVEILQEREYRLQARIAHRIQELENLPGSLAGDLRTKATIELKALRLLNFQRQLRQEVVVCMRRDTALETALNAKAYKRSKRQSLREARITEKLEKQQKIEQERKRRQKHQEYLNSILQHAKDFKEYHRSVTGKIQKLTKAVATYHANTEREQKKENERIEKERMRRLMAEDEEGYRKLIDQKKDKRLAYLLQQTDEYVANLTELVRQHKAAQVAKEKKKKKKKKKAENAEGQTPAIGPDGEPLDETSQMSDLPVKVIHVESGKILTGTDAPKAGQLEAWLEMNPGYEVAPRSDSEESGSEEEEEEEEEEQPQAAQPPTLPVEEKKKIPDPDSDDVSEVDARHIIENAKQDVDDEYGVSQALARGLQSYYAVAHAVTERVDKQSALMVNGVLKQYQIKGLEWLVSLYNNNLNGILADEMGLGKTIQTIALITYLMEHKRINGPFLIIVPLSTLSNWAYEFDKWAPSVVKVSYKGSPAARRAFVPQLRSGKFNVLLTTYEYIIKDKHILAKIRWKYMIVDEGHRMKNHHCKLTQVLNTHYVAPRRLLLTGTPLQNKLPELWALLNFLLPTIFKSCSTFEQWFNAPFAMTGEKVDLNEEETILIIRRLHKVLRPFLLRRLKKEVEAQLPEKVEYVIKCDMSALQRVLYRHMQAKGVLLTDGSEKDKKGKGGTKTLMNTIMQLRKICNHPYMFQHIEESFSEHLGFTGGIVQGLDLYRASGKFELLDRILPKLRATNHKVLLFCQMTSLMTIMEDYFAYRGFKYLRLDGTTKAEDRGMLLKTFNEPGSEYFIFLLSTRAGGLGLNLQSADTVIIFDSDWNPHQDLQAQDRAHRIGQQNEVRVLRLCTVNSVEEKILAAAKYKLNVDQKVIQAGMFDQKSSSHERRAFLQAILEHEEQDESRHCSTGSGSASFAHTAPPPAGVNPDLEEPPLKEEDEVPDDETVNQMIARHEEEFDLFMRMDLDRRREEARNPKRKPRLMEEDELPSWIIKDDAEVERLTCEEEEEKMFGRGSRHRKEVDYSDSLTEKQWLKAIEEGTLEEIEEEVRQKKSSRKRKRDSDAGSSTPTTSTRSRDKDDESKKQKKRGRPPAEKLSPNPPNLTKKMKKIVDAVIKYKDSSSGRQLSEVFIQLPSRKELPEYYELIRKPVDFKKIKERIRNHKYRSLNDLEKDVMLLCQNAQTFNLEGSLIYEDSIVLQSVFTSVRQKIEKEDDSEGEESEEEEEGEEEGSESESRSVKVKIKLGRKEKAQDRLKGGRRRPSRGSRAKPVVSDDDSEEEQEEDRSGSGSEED
Description: as §1

| DC50 [1] [nM] | Dmax [1] [%] | DC50 [2] [nM] | Dmax [2] [%] | Structure (SMILES) |
| --- | --- | --- | --- | --- |
| < 100 | > 90 | 100 to 500 | 50 to 69 | Cc1ncsc1-c1ccc([C@H](CC(=O)N[C@H]2CC[C@H](CN3CCC(c4ccc5c(c4)-n4c(nc(=O)c6c(Cl)cccc64)C5(C)C)CC3)CC2)NC(=O)[C@@H]2C[C@@H](O)CN2C(=O)[C@@H](NC(=O)C2(F)CC2)C(C)(C)C)cc1 [Compound B22, (2S,4R)-N-((S)-3-(((1r,4S)-4-((4-(4-chloro-7,7-dimethyl-5-oxo-5,7-dihydroindolo[1,2-a]quinazolin-10-yl)piperidin-1-yl)methyl)cyclohexyl)amino)-1-(4-(4-methylthiazol-5-yl)phenyl)-3-oxopropyl)-1-((S)-2-(1-fluorocyclopropane-1-carboxamido)-3,3-dimethylbutanoyl)-4-hydroxypyrrolidine-2-carboxamide] |
| < 100 | > 90 | < 100 | 70 to 90 | Cc1ncsc1-c1ccc([C@H](C)NC(=O)[C@@H]2C[C@@H](O)CN2C(=O)[C@@H](NC(=O)C23CC(CN4CCC(c5ccc6c(c5)C(C)(C)c5nc(=O)c7c(Cl)cccc7n5-6)CC4)(C2)C3)C(C)(C)C)cc1 [Compound B23, (2S,4R)-1-((S)-2-(3-((4-(4-chloro-7,7-dimethyl-5-oxo-5,7-dihydroindolo[1,2-a]quinazolin-9-yl)piperidin-1-yl)methyl)bicyclo[1.1.1]pentane-1-carboxamido)-3,3-dimethylbutanoyl)-4-hydroxy-N-((S)-1-(4-(4-methylthiazol-5-yl)phenyl)ethyl)pyrrolidine-2-carboxamide] |
| < 100 | > 90 | < 100 | > 90 | Cc1ncsc1-c1ccc([C@H](C)NC(=O)[C@@H]2C[C@@H](O)CN2C(=O)[C@H](C(C)C)n2cc(CCCN3CCC(c4ccc5c(c4)C(C)(C)c4nc(=O)c6c(Cl)cccc6n4-5)CC3)nn2)cc1 [Compound B24, (2S,4R)-1-((S)-2-(4-(3-(4-(4-chloro-7,7-dimethyl-5-oxo-5,7-dihydroindolo[1,2-a]quinazolin-9-yl)piperidin-1-yl)propyl)-1H-1,2,3-triazol-1-yl)-3-methylbutanoyl)-4-hydroxy-N—((S)-1-(4-(4-methylthiazol-5-yl)phenyl)ethyl)pyrrolidine-2-carboxamide] |
| 501 to 1000 | < 50 | 100 to 500 | < 50 | Cc1ncsc1-c1ccc([C@H](CC(=O)NCCCN2CCC(c3ccc4c(c3)-n3c(nc(=O)c5c(Cl)cccc53)C4(C)C)CC2)NC(=O)[C@@H]2C[C@@H](O)CN2C(=O)[C@@H](NC(=O)C2(F)CC2)C(C)(C)C)cc1 [Compound B25, (2S,4R)-N-((S)-3-((3-(4-(4-chloro-7,7-dimethyl-5-oxo-5,7-dihydroindolo[1,2-a]quinazolin-10-yl)piperidin-1-yl)propyl)amino)-1-(4-(4-methylthiazol-5-yl)phenyl)-3-oxopropyl)-1-((S)-2-(1-fluorocyclopropane-1-carboxamido)-3,3-dimethylbutanoyl)-4-hydroxypyrrolidine-2-carboxamide] |
| < 100 | > 90 | < 100 | > 90 | Cc1ncsc1-c1ccc([C@H](C)NC(=O)[C@@H]2C[C@@H](O)CN2C(=O)[C@@H](c2cc(OCCCN3CCC(c4ccc5c(c4)-n4c(nc(=O)c6c(Cl)cccc64)C5(C)C)CC3)no2)C(C)C)cc1 [Compound B26, (2S,4R)-1-((R)-2-(3-(3-(4-(4-chloro-7,7-dimethyl-5-oxo-5,7-dihydroindolo[1,2-a]quinazolin-10-yl)piperidin-1-yl)propoxy)isoxazol-5-yl)-3-methylbutanoyl)-4-hydroxy-N-((S)-1-(4-(4-methylthiazol-5-yl)phenyl)ethyl)pyrrolidine-2-carboxamide] |
| < 100 | > 90 | < 100 | > 90 | Cc1ncsc1-c1ccc([C@H](C)NC(=O)[C@@H]2C[C@@H](O)CN2C(=O)[C@H](C(C)C)n2cc(CN3CCC(c4ccc5c(c4)C(C)(C)c4nc(=O)c6c(Cl)cccc6n4-5)CC3)nn2)cc1 [Compound B29, (2S,4R)-1-((S)-2-(4-((4-(4-chloro-7,7-dimethyl-5-oxo-5,7-dihydroindolo[1,2-a]quinazolin-9-yl)piperidin-1-yl)methyl)-1H-1,2,3-triazol-1-yl)-3-methylbutanoyl)-4-hydroxy-N—((S)-1-(4-(4-methylthiazol-5-yl)phenyl)ethyl)pyrrolidine-2-carboxamide] |

Second part, the compound before the results:

| Structure (SMILES) | DC50 [1] [nM] | Dmax [1] [%] | DC50 [2] [nM] | Dmax [2] [%] |
| --- | --- | --- | --- | --- |
| Cc1ncsc1-c1ccc([C@H](C)NC(=O)[C@@H]2C[C@@H](O)CN2C(=O)[C@H](C(C)C)n2cc(CCN3CCC(c4ccc5c(c4)C(C)(C)c4nc(=O)c6c(Cl)cccc6n4-5)CC3)nn2)cc1 [Compound B17, (2S,4R)-1-((S)-2-(4-(2-(4-(4-chloro-7,7-dimethyl-5-oxo-5,7-dihydroindolo[1,2-a]quinazolin-9-yl)piperidin-1-yl)ethyl)-1H-1,2,3-triazol-1-yl)-3-methylbutanoyl)-4-hydroxy-N-((S)-1-(4-(4-methylthiazol-5-yl)phenyl)ethyl)pyrrolidine-2-carboxamide] | < 100 | > 90 | < 100 | > 90 |
| Cc1ncsc1-c1ccc([C@H](C)NC(=O)[C@@H]2C[C@@H](O)CN2C(=O)[C@@H](NC(=O)C23CCC(CN4CCC(c5ccc6c(c5)C(C)(C)c5nc(=O)c7c(Cl)cccc7n5-6)CC4)(CC2)C3)C(C)(C)C)cc1 [Compound B18, (2S,4R)-1-((S)-2-(4-((4-(4-chloro-7,7-dimethyl-5-oxo-5,7-dihydroindolo[1,2-a]quinazolin-9-yl)piperidin-1-yl)methyl)bicyclo[2.2.1]heptane-1-carboxamido)-3,3-dimethylbutanoyl)-4-hydroxy-N-((S)-1-(4-(4-methylthiazol-5-yl)phenyl)ethyl)pyrrolidine-2-carboxamide] | < 100 | > 90 | < 100 | 70 to 90 |
| Cc1ncsc1-c1ccc([C@H](C)NC(=O)[C@@H]2C[C@@H](O)CN2C(=O)[C@H](C(C)C)n2cc(C3CCC(CN4CCC(c5ccc6c(c5)C(C)(C)c5nc(=O)c7c(Cl)cccc7n5-6)CC4)CC3)nn2)cc1 (stereo partly drawn) [Compound B19, (2S,4R)-1-((S)-2-(4-(4-((4-(4-chloro-7,7-dimethyl-5-oxo-5,7-dihydroindolo[1,2-a]quinazolin-9-yl)piperidin-1-yl)methyl)cyclohexyl)-1H-1,2,3-triazol-1-yl)-3-methylbutanoyl)-4-hydroxy-N-((S)-1-(4-(4-methylthiazol-5-yl)phenyl)ethyl)pyrrolidine-2-carboxamide] | < 100 | > 90 | 100 to 500 | 70 to 90 |
| Cc1ncsc1-c1ccc([C@H](C)NC(=O)[C@@H]2C[C@@H](O)CN2C(=O)[C@@H](NC(=O)c2ccc(CN3CCC(c4ccc5c(c4)C(C)(C)c4nc(=O)c6c(Cl)cccc6n4-5)CC3)s2)C(C)(C)C)cc1 [Compound B20, (2S,4R)-1-((S)-2-(5-((4-(4-chloro-7,7-dimethyl-5-oxo-5,7-dihydroindolo[1,2-a]quinazolin-9-yl)piperidin-1-yl)methyl)thiophene-2-carboxamido)-3,3-dimethylbutanoyl)-4-hydroxy-N-((S)-1-(4-(4-methylthiazol-5-yl)phenyl)ethyl)pyrrolidine-2-carboxamide] | < 100 | > 90 | < 100 | 70 to 90 |
| Cc1ncsc1-c1ccc([C@H](CCCCCN2CCC(c3ccc4c(c3)-n3c(nc(=O)c5c(Cl)cccc53)C4(C)C)CC2)NC(=O)[C@@H]2C[C@@H](O)CN2C(=O)[C@@H](NC(=O)C2(F)CC2)C(C)(C)C)cc1 [Compound B21, (2S,4R)-N-((S)-6-(4-(4-chloro-7,7-dimethyl-5-oxo-5,7-dihydroindolo[1,2-a]quinazolin-10-yl)piperidin-1-yl)-1-(4-(4-methylthiazol-5-yl)phenyl)hexyl)-1-((S)-2-(1-fluorocyclopropane-1-carboxamido)-3,3-dimethylbutanoyl)-4-hydroxypyrrolidine-2-carboxamide] | < 100 | > 90 | < 100 | > 90 |
| Cc1ncsc1-c1ccc([C@H](C)NC(=O)[C@@H]2C[C@@H](O)CN2C(=O)[C@@H](c2cc(OCCCCN3CCC(c4ccc5c(c4)-n4c(nc(=O)c6c(Cl)cccc64)C5(C)C)CC3)no2)C(C)C)cc1 [Compound B27, (2S,4R)-1-((R)-2-(3-(4-(4-(4-chloro-7,7-dimethyl-5-oxo-5,7-dihydroindolo[1,2-a]quinazolin-10-yl)piperidin-1-yl)butoxy)isoxazol-5-yl)-3-methylbutanoyl)-4-hydroxy-N-((S)-1-(4-(4-methylthiazol-5-yl)phenyl)ethyl)pyrrolidine-2-carboxamide] | < 100 | > 90 | < 100 | 70 to 90 |
